{"source": "patent US10390532B2", "about": "“Insecticide composition including thiamethoxam and a synergistic agent” (priority 2015, dated 2019)", "assay_type_in_all_cases": "cell-based, Periplaneta americana", "key": {"[1]": {"system": "cockroach Dorsal Unpaired Median (DUM) neurons", "test": "Voltage-clamp thiamethoxam-induced current in DUM neurons after pretreatment with acetylcholine", "method": "Electrical activity and neonicotinoïd-induced inward currents are recorded using the patch clamp technique in the whole-cell recording configuration under current-clamp and voltage-clamp mode, respectively. Patch-clamp electrodes are pulled from borosilicate glass capillary tubes (GC150T-10) using a P-97 model puller. Patch pipettes have resistances ranging from 1 to 1.2 MΩ when filled with internal pipette solution. The liquid junction potential between extracellular and intracellular solutions is always corrected before the formation of a giga Ohm seal (>3GΩ). Signals are recorded with an Axopatch 200A amplifier. […] Under voltage-clamp conditions, DUM neuron somata are voltage-clamped at a steady state holding potential of −50 mV to measure the effects of thiamethoxam applied alone and after pretreatment with IR3535® (10^−8 M). Experiments are carried out at room temperature.\nAcetylcholine at a concentration of 10^−3M has been applied to DUM neurons during one second, three minutes before testing thiamethoxam at 10^−7M, 10^−6M and 10^−5M on DUM neurons under the same protocol as example 3."}, "[2]": {"system": "cockroach Dorsal Unpaired Median (DUM) neurons", "test": "Whole-cell patch-clamp, voltage-clamp: thiamethoxam-induced inward current in DUM neurons", "conditions": "holding potential -50 mV", "method": "(§1) Experiments were carried out on cockroach Dorsal Unpaired Median (DUM) neurons. Cockroach neuronal preparations are commonly used as biomedical models for vertebrates and invertebrates and DUM neurons are, furthermore, electrophysiologically and pharmacologically well characterized since most of the biophysical and pharmacological properties of ionic currents and receptors underlying and modulating their spontaneous action potentials have been established by using the well-known patch-clamp technique.\n(§2) Adult male cockroaches, Periplaneta americana (see FIG. 1), are taken from our laboratory colonies, which are maintained under standard conditions (29° C., photoperiod of 12 h light/12 h dark). Animals are immobilized dorsal-side up on a dissection dish. The dorsal cuticle, gut and some dorso-longitudinal muscles are removed to allow access to the ventral nerve cord. The abdominal nerve cord and its terminal abdominal ganglion (TAG), carefully dissected under a binocular microscope, are placed in normal saline. Animal care and handling procedures are in accordance with French institutional and national health guidelines. […]\n(§3) Electrical activity and neonicotinoïd-induced inward currents are recorded using the patch clamp technique in the whole-cell recording configuration under current-clamp and voltage-clamp mode, respectively. […] Signals are recorded with an Axopatch 200A amplifier. […]"}, "[3]": {"system": "cockroach Dorsal Unpaired Median (DUM) neurons", "conditions": "for origin of the intracellular calcium rise: with caffeine, omega-conotoxin, pirenzepine"}, "[4]": {"system": "cockroach Dorsal Unpaired Median (DUM) neurons", "test": "Whole-cell patch-clamp, current-clamp: DUM neuron spontaneous electrical activity", "conditions": "10^-8 M", "method": "as §1, §2, §3"}}, "note": "Where two headings read alike, the source gives them in different places."}
{"smiles": "CN1COCN(Cc2cnc(Cl)s2)/C1=N\\[N+](=O)[O-]", "note": "[thiamethoxam]", "values": [{"measurement": "current amplitude, rank among tested concentrations", "setting": "[1]; thiamethoxam 10^-6 M after acetylcholine 10^-3 M", "result": "lowest value"}, {"measurement": "induced current", "setting": "[1]; thiamethoxam 10^-7, 10^-6, 10^-5 M after acetylcholine 10^-3 M (1 s, 3 min before)", "result": "induces a current"}, {"measurement": "current amplitude, rank among tested concentrations", "setting": "[1]; thiamethoxam 10^-7 M after acetylcholine 10^-3 M", "result": "highest value"}, {"measurement": "induced current", "setting": "[1]; thiamethoxam alone, no acetylcholine pretreatment", "result": "no current has been recorded"}, {"measurement": "mean inward current amplitude relative to thiamethoxam applied alone", "setting": "[2]; thiamethoxam 10^-6 M after pretreatment with IR3535 10^-8 M", "result": "about 6 fold"}, {"measurement": "induced inward current amplitude", "setting": "[2]; thiamethoxam 10^-6 M alone, n=3-4", "result": "induces an inward current with small amplitudes"}]}
{"smiles": "CCCCN(CCC(=O)OCC)C(C)=O", "note": "[IR3535®, 3-[N-Butyl-N-acetyl]-aminopropionic acid, ethyl ester]", "values": [{"measurement": "lower concentration which produces a significant elevation of intracellular calcium concentration", "setting": "[3]; DUM neurons", "result": "10^−8 M"}, {"measurement": "concentration at which the zone I intracellular calcium increase reaches a maximum", "setting": "[3]; DUM neurons, zone I", "result": "10^−8 M"}, {"measurement": "concentration producing the maximum effect on intracellular calcium (zone III)", "setting": "[3]; DUM neurons, zone III", "result": "3.10^−5 M"}, {"measurement": "origin of the intracellular calcium rise", "setting": "[3]; IR3535 at 10^-8 M", "result": "results from extracellular calcium through plasma membrane voltage-dependent calcium channels via M1/M3 mAChR sub-type modulation"}, {"measurement": "origin of the intracellular calcium rise", "setting": "[3]; higher concentrations of IR3535 (10^-5 M)", "result": "both extracellular calcium and calcium released from internal stores are involved"}, {"measurement": "effect on membrane potential and spontaneous action potential discharge frequency", "setting": "[4]", "result": "induces a significant membrane depolarization associated with an increase of the spontaneous action potential discharge frequency"}]}
{"smiles": "CCN(CC)C(=O)c1cccc(C)c1", "note": "[DEET, N,N-diethyl-3-methylbenzamide]", "values": [{"measurement": "effect on intracellular calcium concentration", "setting": "[3]; DEET at concentrations higher than 10^-7 M", "result": "an important decrease of the intracellular calcium concentration"}, {"measurement": "ratio of emitted fluorescence (340 nm/380 nm)", "setting": "[3]; DEET between 3.10-8 M and 3.10-7 M", "result": "above 0.6"}, {"measurement": "concentration at which the intracellular calcium elevation reaches a maximum", "setting": "[3]; DEET, DUM neurons", "result": "10^−7 M"}, {"measurement": "maximum value of ratio of emitted fluorescence (340 nm/380 nm)", "setting": "[3]; DEET, maximum at 10^-7 M", "result": 0.7}]}
